The structures appear in SMILES notation. Converted amounts (≈) assume the structure as drawn.

From ChEMBL document CHEMBL1150211, “Structure of Irniine, a Pyrrolidine Alkaloid from Arisarum vulgare” (J Nat Prod, 1992) come the findings set out here.

A short description of this series: Toxicity in brine shrimp. Format: organism-based. The conditions noted are these: artemia, in vivo.

In turn, `CN1CCC[C@H]1CCCCCCCCCc1ccccc1` returned an LC50 of 1 µg/mL (≈ 3.48 µM).

Broadly, the LC50 is the concentration lethal to half of the exposed cells or organisms. A lower LC50 goes with greater toxicity.
